Results: patent US20240425497A1, “Cbl-b Inhibitors and Methods of Use Thereof” (ARCUS BIOSCIENCES, INC., priority 2023, published 2024)

Columns and labels:
[1] = biological target: Cbl-b (Homo sapiens (Human), UniProt Q13191); test: Cbl-b probe displacement HTRF binding assay; details: 0.4 nM biotinylated Cbl-b, 150 nM BODIPY probe
Description: The affinity with which compounds of the present disclosure bind to Cbl-b was assessed using probe displacement homologous time resolved fluorescence (HTRF) assays. The assays used a BODIPY™ conjugated probe (Example 54 from WO 2020264398) and biotinylated Cbl-b. The assays were performed in assay buffer consisting of 20 mM Hepes, 150 mM NaCl, 0.01% Triton X-100, 0.5 mM TCEP, 0.01% BSA. On the day of the assay, a 20 point, 1:2 master serial dilution of each compound was prepared in DMSO to span a final concentration range of 10 μM to 0 nM. Two hundred nanoliters of diluted compound was added to each well of a 384-well plate. Fifteen microliters of biotinylated-Cbl-b resuspended in assay buffer were added to each well and the plate incubated for 60 minutes at room temperature prior to addition of 5 μL of BODIPY™ probe in assay buffer. Final assay conditions included 0.4 nM of Cbl-b and 150 nM of BODIPY™ probe. After a further 15 minutes of incubation at room temperature, 5 μl of Streptavidin-Terbium cryptate reagent at 5-fold final concentration was added to each well of the 384-well plate. Binding of a probe to Cbl-b results in an increase of HTRF signal. HTRF signal was measured by Envision plate reader, while competition of a compound of the present disclosure with probe results in a decrease of signal. Percentage maximum activity in each test well was calculated based on DMSO (maximum activity, 0% displacement) and no protein control wells (baseline activity, 100% displacement). Binding affinity was determined from a dose response curve fitted using a standard four parameter fit equation. See Table 3 for data for compounds (Cbl-b Binding (IC50)).

[2] = test system: Jurkat cells; test: IL-2 secretion assay in CD3/CD28-activated Jurkat cells (AlphaLISA); assay type: cell-based, human; details: Homo sapiens, CD3/CD28 activation, 24 h
Description: Certain compounds were also evaluated in an IL-2 secretion assay. On the day of the assay, a 16 point, 1:2 master serial dilution of each compound was prepared in Opti-MEM to span a final concentration range of […]. Assays were set up in CORNING® tissue culture-treated 384-well microplates containing 60 nL of each dilution. Jurkat cells grown in RPMI-1640 supplemented with 10% FBS, 1% Glutamax, and 1% Pen/Strep were collected, resuspended in Opti-MEM. 50,000 cells/well and added to the compound plates. After a short spin (1200 rpm for 1 min), the plates were incubated at 37° C. for 1 hour. The cells were activated by adding 15 μL of IMMUNOCULT™ Human CD3/CD28 T Cell Activator (STEMCELL Technologies) diluted in Opti-MEM. After 24 h of incubation at 37° C., aliquots of culture supernatants were transferred to OptiPlate-384 (PerkinElmer) microplates. The level of JIL-2 secretion in the supernatants was then determined using the IL-2 (human) AiphaLISA Detection Kit (PerkinElmer) according to the manufacturer's recommendations. The AiphaLISA signal was measured using an EnVision plate reader (PerkinElmer). EC50 values were determined by fitting the data to a standard 4-parameter logistic equation. See Table 3 for data for select compounds (IL-2 Secretion (EC50)).

Chain of Cbl-b (Q13191 whole entry, species assumed): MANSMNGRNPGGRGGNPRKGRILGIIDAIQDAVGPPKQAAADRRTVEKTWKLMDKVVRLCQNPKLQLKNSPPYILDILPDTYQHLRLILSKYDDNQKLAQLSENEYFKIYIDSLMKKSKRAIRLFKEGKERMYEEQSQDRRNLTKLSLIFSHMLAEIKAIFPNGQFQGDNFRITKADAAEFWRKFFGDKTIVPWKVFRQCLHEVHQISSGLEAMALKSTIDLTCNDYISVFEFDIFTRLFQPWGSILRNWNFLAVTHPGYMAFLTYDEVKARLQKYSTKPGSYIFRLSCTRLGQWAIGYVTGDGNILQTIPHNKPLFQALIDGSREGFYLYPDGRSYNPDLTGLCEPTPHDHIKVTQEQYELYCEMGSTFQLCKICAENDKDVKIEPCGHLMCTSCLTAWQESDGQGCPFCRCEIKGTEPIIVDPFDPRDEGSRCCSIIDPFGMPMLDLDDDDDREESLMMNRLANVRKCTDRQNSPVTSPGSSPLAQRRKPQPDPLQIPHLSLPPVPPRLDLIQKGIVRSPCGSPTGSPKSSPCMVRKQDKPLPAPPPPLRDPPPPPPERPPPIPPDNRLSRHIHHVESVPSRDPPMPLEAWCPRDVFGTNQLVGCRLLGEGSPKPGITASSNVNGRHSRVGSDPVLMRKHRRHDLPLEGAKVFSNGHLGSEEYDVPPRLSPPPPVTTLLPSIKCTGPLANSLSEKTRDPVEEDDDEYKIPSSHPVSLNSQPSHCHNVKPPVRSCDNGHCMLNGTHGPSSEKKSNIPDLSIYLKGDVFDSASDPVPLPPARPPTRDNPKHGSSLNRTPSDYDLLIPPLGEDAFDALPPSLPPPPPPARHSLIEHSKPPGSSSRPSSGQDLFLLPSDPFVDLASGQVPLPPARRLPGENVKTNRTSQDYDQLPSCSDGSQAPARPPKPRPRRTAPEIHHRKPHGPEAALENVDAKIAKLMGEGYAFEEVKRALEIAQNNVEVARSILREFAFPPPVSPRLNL

| IC50 [1] | EC50 [2] | Structure (SMILES) |
| --- | --- | --- |
| 0.1 to 1 µM | 0.1 to 1 µM | C[C@H]1CCCN(Cc2cc3c(C#N)cn(-c4cncc(-c5ccc(F)cc5C(=O)N5CC(F)C5)c4)c(=O)c3[nH]2)C1 [Example 24, 2-{[(S)-3-methyl-1-piperidyl]methyl}-6-(5-{4-fluoro-2-[(3-fluoro-1-azetidinyl)carbonyl]phenyl}-3-pyridyl)-7-oxo-1,6-dihydro-1,6-diaza-4-indenecarbonitrile] |
| < 0.1 µM | < 0.1 µM | C[C@H]1CCCN(Cc2cc3ncn(-c4cc(-c5ccc(F)cc5C(=O)N5CC(F)C5)cc(C5CC5)n4)c(=O)c3[nH]2)C1 [Example 25, 2-{[(S)-3-methyl-1-piperidyl]methyl}-6-(6-cyclopropyl-4-{4-fluoro-2-[(3-fluoro-1-azetidinyl)carbonyl]phenyl}-2-pyridyl)-1,6-dihydro-1,4,6-triaza-7-indenone] |
| < 0.1 µM | < 0.1 µM | C[C@@H]1CN(Cc2cc3ncn(-c4cc(-c5ccc(F)cc5C(=O)N5CC(F)C5)cc(C5CC5)n4)c(=O)c3[nH]2)CCO1 [Example 26, 3-[6-cyclopropyl-4-[4-fluoro-2-(3-fluoroazetidine-1-carbonyl)phenyl]pyridin-2-yl]-6-[[(2R)-2-methylmorpholin-4-yl]methyl]-5H-pyrrolo[3,2-d]pyrimidin-4-one] |
| 0.1 to 1 µM | 1 to 5 µM | CC(O)c1cc2ncn(-c3cc(-c4ccc(F)cc4C(=O)N4CC(F)C4)cc(C4CC4)n3)c(=O)c2[nH]1 (centres unmarked) [Example 27, 6-(6-cyclopropyl-4-{4-fluoro-2-[(3-fluoro-1-azetidinyl)carbonyl]phenyl}-2-pyridyl)-2-(1-hydroxyethyl)-1,6-dihydro-1,4,6-triaza-7-indenone] |
| < 0.1 µM | 0.1 to 1 µM | C[C@H]1CCCN(Cc2ccc3c(c2)C(=O)N(c2cc(-c4ccc(F)cc4C(=O)N4CC(F)C4)cc(C4CC4)n2)C3)C1 [Example 28, 6-{[(S)-3-methyl-1-piperidyl]methyl}-2-(6-cyclopropyl-4-{4-fluoro-2-[(3-fluoro-1-azetidinyl)carbonyl]phenyl}-2-pyridyl)-1-isoindolinone] |
| < 0.1 µM | < 0.1 µM | C[C@H]1CCCN(Cc2nc3c(C4CC4)cn(-c4cc(-c5ccc(F)cc5C(=O)N5CC(F)C5)cc(C5CC5)c4)c(=O)c3[nH]2)C1 [Example 29, 7-cyclopropyl-5-[3-cyclopropyl-5-[4-fluoro-2-(3-fluoroazetidine-1-carbonyl)phenyl]phenyl]-2-[[(3S)-3-methylpiperidin-1-yl]methyl]-3H-imidazo[4,5-c]pyridin-4-one] |
| < 0.1 µM | < 0.1 µM | C[C@H]1CCCN(Cc2cc3c(C4CC4)cn(-c4cc(-c5ccc(F)cc5C(=O)N5CC(F)C5)nc(C5CC5)n4)c(=O)c3[nH]2)C1 [Example 30, 4-cyclopropyl-6-[2-cyclopropyl-6-[4-fluoro-2-(3-fluoroazetidine-1-carbonyl)phenyl]pyrimidin-4-yl]-2-[[(3S)-3-methylpiperidin-1-yl]methyl]—1H-pyrrolo[2,3-c]pyridin-7-one] |
| 1 to 5 µM | > 5 µM | C[C@H]1CCCN(Cc2cc3c(C4CC4)cn(-c4nc(-c5ccc(F)cc5C(=O)N5CC(F)C5)cc(C5CC5)n4)c(=O)c3[nH]2)C1 [Example 31, 4-cyclopropyl-6-[4-cyclopropyl-6-[4-fluoro-2-(3-fluoroazetidine-1-carbonyl)phenyl]pyrimidin-2-yl]-2-[[(3S)-3-methylpiperidin-1-yl]methyl]—1H-pyrrolo[2,3-c]pyridin-7-one] |
| < 0.1 µM | 1 to 5 µM | O=C(c1cc(F)ccc1-c1cc(C2CC2)nc(-n2cnc3cc(C4CCNC4)[nH]c3c2=O)c1)N1CC(F)C1 (centres unmarked) [Example 32, 3-[6-cyclopropyl-4-[4-fluoro-2-(3-fluoroazetidine-1-carbonyl)phenyl]pyridin-2-yl]-6-pyrrolidin-3-yl-5H-pyrrolo[3,2-d]pyrimidin-4-one] |
| 0.1 to 1 µM | 0.1 to 1 µM | O=C(c1cc(F)ccc1-c1cc(C2CC2)nc(-n2cnc3cc(C4CC4)[nH]c3c2=O)c1)N1CC(F)C1 [Example 33, 6-cyclopropyl-3-[6-cyclopropyl-4-[4-fluoro-2-(3-fluoroazetidine-1-carbonyl)phenyl]pyridin-2-yl]-5H-pyrrolo[3,2-d]pyrimidin-4-one] |
| < 0.1 µM | < 0.1 µM | COC[C@H](C)NCc1cc2ncn(-c3cc(-c4ccc(F)cc4C(=O)N4CC(F)(F)C4)cc(C4CC4)n3)c(=O)c2[nH]1 [Example 34, 3-[6-cyclopropyl-4-[2-(3,3-difluoroazetidine-1-carbonyl)-4-fluorophenyl]pyridin-2-yl]-6-[[[(2S)-1-methoxypropan-2-yl]amino]methyl]-5H-pyrrolo[3,2-d]pyrimidin-4-one] |
| < 0.1 µM | < 0.1 µM | COCCNCc1cc2ncn(-c3cc(-c4ccc(F)cc4C(=O)N4CC(F)C4)cc(C4CC4)n3)c(=O)c2[nH]1 [Example 35, 3-[6-cyclopropyl-4-[4-fluoro-2-(3-fluoroazetidine-1-carbonyl)phenyl]pyridin-2-yl]-6-[(2-methoxyethylamino)methyl]-5H-pyrrolo[3,2-d]pyrimidin-4-one] |
| < 0.1 µM | < 0.1 µM | CC1(NCc2cc3ncn(-c4cc(-c5ccc(F)cc5C(=O)N5CC(F)C5)cc(C5CC5)n4)c(=O)c3[nH]2)CCC1 [Example 36, 3-[6-cyclopropyl-4-[4-fluoro-2-(3-fluoroazetidine-1-carbonyl)phenyl]pyridin-2-yl]-6-[[(1-methylcyclobutyl)amino]methyl]-5H-pyrrolo[3,2-d]pyrimidin-4-one] |
| < 0.1 µM | 0.1 to 1 µM | O=C(c1cc(F)ccc1-c1cc(C2CC2)nc(-n2cnc3cc(CN4CC5CCC4C5)[nH]c3c2=O)c1)N1CC(F)C1 (centres unmarked) [Example 37, 6-(2-azabicyclo[2.2.1]heptan-2-ylmethyl)-3-[6-cyclopropyl-4-[4-fluoro-2-(3-fluoroazetidine-1-carbonyl)phenyl]pyridin-2-yl]-5H-pyrrolo[3,2-d]pyrimidin-4-one] |
| < 0.1 µM | 0.1 to 1 µM | COCCN(C)Cc1cc2ncn(-c3cc(-c4ccc(F)cc4C(=O)N4CC(F)(F)C4)cc(C4CC4)n3)c(=O)c2[nH]1 [Example 38, 3-[6-cyclopropyl-4-[2-(3,3-difluoroazetidine-1-carbonyl)-4-fluorophenyl]pyridin-2-yl]-6-[[2-methoxyethyl(methyl)amino]methyl]-5H-pyrrolo[3,2-d]pyrimidin-4-one] |
| < 0.1 µM | < 0.1 µM | O=C(c1cc(F)ccc1-c1cc(C2CC2)nc(-n2cnc3cc(CNCCC(F)(F)F)[nH]c3c2=O)c1)N1CC(F)(F)C1 [Example 39, 3-[6-cyclopropyl-4-[2-(3,3-difluoroazetidine-1-carbonyl)-4-fluorophenyl]pyridin-2-yl]-6-[(3,3,3-trifluoropropylamino)methyl]-5H-pyrrolo[3,2-d]pyrimidin-4-one] |
| < 0.1 µM | 0.1 to 1 µM | COCCNCc1cc2ncn(-c3cc(-c4ccc(F)cc4C(=O)N4CC(F)(F)C4)cc(C4CC4)c3)c(=O)c2[nH]1 [Example 41, 6-{5-cyclopropyl-2′-[(3,3-difluoro-1-azetidinyl)carbonyl]-4′-fluoro-3-biphenylyl}-2-[(2-methoxyethylamino)methyl]-1,6-dihydro-1,4,6-triaza-7-indenone] |
| < 0.1 µM | 0.1 to 1 µM | COC1CN(Cc2cc3ncn(-c4cc(-c5ccc(F)cc5C(=O)N5CC(F)(F)C5)cc(C5CC5)n4)c(=O)c3[nH]2)C1 [Example 43, 6-(6-cyclopropyl-4-{2-[(3,3-difluoro-1-azetidinyl)carbonyl]-4-fluorophenyl}-2-pyridyl)-2-[(3-methoxy-1-azetidinyl)methyl]-1,6-dihydro-1,4,6-triaza-7-indenone] |
| < 0.1 µM | < 0.1 µM | COCCNCc1cc2ncn(-c3cc(-c4ccc(F)cc4C(=O)N4CC(F)(F)C4)cc(C4CC4)n3)c(=O)c2[nH]1 [Example 44, 6-(6-cyclopropyl-4-{2-[(3,3-difluoro-1-azetidinyl)carbonyl]-4-fluorophenyl}-2-pyridyl)-2-[(2-methoxyethylamino)methyl]-1,6-dihydro-1,4,6-triaza-7-indenone] |
